# Experiments:
# [1] = buffer properties of cysteine; type: physicochemical; details: pH 5.5 to 7
# Excerpt: In a preferred embodiment, the composition according to the invention, preferably an infusion solution, contains cysteine, if appropriate additionally to mannitol.
# [2] = electrical conductivity of aqueous paracetamol solutions; type: physicochemical
# Experimental: The composition according to the invention, preferably an infusion solution, has an electrical conductivity of at most 200 μS cm^−1. The measurement of the electrical conductivity of aqueous solutions is known to the person skilled in the art and suitable measuring apparatuses are obtainable commercially. The electrical conductivity is preferably measured at room temperature. […]
# Aqueous solutions of paracetamol and further ingredients were prepared. The electrical conductivity of the solutions was measured and the storage stability of paracetamol was determined by means of the formation of degradation products (for the formation of the dimer cf., for example, D. W. Pottert et al, J Biol Chem, 1985, […], 12174-80; W. Clegg et al., Acta Crystallographica, 1998, C54, 1881-2).
Structure (SMILES),buffer properties [1],electrical conductivity ([2]; 10 g of paracetamol in 1000 ml of water),electrical conductivity ([2]; 10 g of paracetamol in 1000 ml of water plus 100 mg of NaCl (0.01% by weight of NaCl))
N[C@@H](CS)C(=O)O [cysteine],no buffer properties at all,,
CC(=O)Nc1ccc(O)cc1 [paracetamol],,about 4 μS/cm,about 200 μS/cm
